This is an account of results in patent US12410152B2, “Oxazole and thioazole-type cullin ring ubiquitin ligase compounds and uses thereof” (Proxygen GmbH, priority 2019, dated 2025).

One series relates to KBM7 CUL4Amut cells. Briefly: Cell viability assay, KBM7 CUL4A mutant. It counts as cell-based, human. To be noted: Table 2, data of FIG. 6; 3-day treatment; read-out: LC50 CUL4Amut. On the procedure:
KBM7 cells with the specified genetic backgrounds were grown in IMDM supplemented with 10% FBS and 1% penicillin/streptomycin (pen/strep). AsPC1, HCT116, NCI-H446 and 293T cells were grown in DMEM 10% FBS and 1% pen/strep. MV4; 11, Jurkat and Be (2) C cells were grown in RPMI 10% FBS 1% pen/strep. KBM7, AsPC1 and HCT116 cells expressing Cas9 were generated using the plasmid Lenti_Cas9_Blasti (Addgene #52962). The lentiviral plasmid lentiGuide-Puro (Addgene #52963) was used to express sgRNAs against the genes UBE2M (in KBM7-Cas9, AsPC1-Cas9 and HCT116-Cas9 cells), UBE2G1 (in KBM7-Cas9 cells) and […] (in KBM7-Cas9 cells). The lentiviral plasmid lentiGuide-Puro-IRES-mCherry (modified from Addgene #52963) was used to express sgRNAs against CUL4A (in KBM7-Cas9 cells). The lentiviral plasmid pLenti-PGK-Hygro-DEST-UBE2M was generated by Gateway cloning (empty destination vector Addgene #19066), and used to generate UBE2M^resc KBM7 cells.
Validating the previous results, a strong enrichment for cells transduced with UBE2Mtargeting sgRNAs was detected. […] The fact that Rbx1 was not detected in the initial experiment is likely explained by the fact that prolonged loss of RBX1 function is detrimental to cellular fitness. […] To understand if the tested compounds were uniquely dependent on CUL4B over CUL4A, a differential drug efficacy was assessed in dose ranging viability assays in KBM7 WT cells and isogenic clones deficient in either CUL4A, CUL4B, and UBE2G1. […]
KBM7^WT, mutant KBM7 clones (UBE2M^mut, UBE2M^resc, UBE2G1^mut CUL4A^mut, CUL4B^mut), and 3-day doxycycline pretreated KBM7^iCas9_sgDDB1 cells were seeded at a cell density of 50,000 cells/mL in 96-well plates with DMSO or drug, in triplicates. […] Cells were treated for 3 days, after which cell viability was assessed according to manufacturer's protocol (CellTiter Glo, Promega G7570). Survival curves and EC50 values were calculated by best-fit analysis of the log 10 drug concentration to fold change of drug-treated cells over DMSO-treated cells. […]

In series [1] the target is T1, CDK12/13 (Homo sapiens, UniProt Q9NYV4).
T1 construct: endogenous in cells; host or cells: KBM7 cells
T1 sequence (Q9NYV4 whole entry): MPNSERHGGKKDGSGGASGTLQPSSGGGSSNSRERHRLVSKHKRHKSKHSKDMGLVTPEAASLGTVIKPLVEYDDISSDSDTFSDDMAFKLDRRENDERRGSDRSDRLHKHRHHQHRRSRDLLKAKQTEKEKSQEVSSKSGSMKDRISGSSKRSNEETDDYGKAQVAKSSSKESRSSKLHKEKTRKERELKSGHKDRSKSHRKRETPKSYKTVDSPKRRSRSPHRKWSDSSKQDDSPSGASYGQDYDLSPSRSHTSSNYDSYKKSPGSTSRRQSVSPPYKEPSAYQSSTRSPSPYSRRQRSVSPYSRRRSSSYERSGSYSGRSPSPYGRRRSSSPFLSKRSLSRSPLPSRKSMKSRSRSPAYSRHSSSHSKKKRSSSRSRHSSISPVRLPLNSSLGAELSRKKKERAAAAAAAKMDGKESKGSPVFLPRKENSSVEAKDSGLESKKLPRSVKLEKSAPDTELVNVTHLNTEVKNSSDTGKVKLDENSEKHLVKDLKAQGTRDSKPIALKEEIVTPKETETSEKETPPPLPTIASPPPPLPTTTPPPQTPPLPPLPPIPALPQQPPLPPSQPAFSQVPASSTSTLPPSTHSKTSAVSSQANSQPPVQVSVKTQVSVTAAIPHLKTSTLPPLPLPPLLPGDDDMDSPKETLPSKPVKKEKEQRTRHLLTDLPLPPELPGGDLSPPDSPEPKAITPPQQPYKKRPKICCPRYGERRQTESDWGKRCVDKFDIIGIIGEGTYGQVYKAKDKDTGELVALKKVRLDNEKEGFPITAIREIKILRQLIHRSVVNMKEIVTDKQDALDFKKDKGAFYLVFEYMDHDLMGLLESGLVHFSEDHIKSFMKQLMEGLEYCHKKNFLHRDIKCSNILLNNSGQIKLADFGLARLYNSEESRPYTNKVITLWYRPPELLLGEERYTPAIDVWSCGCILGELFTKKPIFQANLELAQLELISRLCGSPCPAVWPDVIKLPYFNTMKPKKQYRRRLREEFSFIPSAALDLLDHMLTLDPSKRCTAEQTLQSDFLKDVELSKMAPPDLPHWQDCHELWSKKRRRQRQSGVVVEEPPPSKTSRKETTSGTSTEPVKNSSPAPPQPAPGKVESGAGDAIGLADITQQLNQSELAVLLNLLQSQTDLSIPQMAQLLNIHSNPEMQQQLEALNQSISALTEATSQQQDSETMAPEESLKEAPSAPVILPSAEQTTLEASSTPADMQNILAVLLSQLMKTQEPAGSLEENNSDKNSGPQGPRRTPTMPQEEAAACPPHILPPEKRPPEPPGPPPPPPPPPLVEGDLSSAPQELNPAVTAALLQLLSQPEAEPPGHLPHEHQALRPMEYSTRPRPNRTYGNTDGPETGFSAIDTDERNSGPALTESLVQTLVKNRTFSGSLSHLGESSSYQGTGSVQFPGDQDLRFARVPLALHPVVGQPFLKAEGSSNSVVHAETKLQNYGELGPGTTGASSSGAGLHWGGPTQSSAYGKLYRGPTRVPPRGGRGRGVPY
T1 sequence (O75909 whole entry partner): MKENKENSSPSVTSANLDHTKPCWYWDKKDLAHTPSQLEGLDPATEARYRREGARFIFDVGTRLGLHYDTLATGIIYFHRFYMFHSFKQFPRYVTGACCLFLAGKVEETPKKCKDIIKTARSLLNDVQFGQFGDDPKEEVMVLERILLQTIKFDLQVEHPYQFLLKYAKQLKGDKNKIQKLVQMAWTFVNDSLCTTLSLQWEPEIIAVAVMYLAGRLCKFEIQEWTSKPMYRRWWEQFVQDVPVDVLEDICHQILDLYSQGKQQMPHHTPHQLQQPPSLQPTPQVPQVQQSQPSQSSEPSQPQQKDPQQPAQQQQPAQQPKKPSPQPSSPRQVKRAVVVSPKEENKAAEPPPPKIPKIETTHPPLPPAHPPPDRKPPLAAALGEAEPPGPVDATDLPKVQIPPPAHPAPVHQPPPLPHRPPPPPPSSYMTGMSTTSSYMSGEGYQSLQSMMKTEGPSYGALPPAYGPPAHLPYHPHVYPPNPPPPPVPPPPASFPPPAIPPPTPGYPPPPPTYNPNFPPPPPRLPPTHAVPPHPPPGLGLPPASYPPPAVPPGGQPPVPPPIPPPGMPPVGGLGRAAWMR
T1 sequence (Q16531 whole entry partner): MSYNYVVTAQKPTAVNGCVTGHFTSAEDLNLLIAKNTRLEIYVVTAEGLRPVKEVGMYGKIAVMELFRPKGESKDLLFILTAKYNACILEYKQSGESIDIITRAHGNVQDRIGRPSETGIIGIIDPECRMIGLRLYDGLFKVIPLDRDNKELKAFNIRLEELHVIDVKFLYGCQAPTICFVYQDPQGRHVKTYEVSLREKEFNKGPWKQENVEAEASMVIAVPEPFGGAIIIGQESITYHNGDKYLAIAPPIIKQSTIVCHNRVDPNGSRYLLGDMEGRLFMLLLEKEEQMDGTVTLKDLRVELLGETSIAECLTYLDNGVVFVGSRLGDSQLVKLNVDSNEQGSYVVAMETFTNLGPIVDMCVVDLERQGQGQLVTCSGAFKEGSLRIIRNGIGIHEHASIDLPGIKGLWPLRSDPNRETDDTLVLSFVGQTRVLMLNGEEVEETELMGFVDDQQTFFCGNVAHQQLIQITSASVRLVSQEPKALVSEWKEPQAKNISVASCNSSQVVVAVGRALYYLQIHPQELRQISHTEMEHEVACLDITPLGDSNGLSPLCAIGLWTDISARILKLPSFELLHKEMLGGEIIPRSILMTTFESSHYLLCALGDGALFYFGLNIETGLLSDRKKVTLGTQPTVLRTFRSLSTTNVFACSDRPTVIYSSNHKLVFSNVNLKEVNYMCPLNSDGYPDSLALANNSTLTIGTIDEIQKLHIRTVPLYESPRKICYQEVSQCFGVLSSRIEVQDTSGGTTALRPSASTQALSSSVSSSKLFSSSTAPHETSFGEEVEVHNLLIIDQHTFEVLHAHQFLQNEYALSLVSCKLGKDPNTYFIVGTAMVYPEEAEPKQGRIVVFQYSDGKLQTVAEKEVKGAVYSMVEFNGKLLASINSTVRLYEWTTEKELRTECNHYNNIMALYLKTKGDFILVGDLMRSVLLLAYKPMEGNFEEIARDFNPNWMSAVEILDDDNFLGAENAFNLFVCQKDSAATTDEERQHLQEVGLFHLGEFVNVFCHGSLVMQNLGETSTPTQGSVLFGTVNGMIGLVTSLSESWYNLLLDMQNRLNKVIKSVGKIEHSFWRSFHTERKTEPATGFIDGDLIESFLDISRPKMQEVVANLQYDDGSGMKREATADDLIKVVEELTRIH
Briefly: CDK12/13 destabilization (expression proteomics and Western blot). Type of series: cell-based. On the procedure: (§1) The hypomorphic phenotype of the mutated UBE2M allele in KBM7 cells (KBM7 UBE2M^mut cells) was assessed. In this regard, CRISPR/Cas9-induced mutation of UBE2M inactivated CRL activity including CRL4^CRBN and CRL2^VHL. […] Additionally, CCNK destabilization by all three compounds was validated via time-resolved immunoblots wherein CCNK degradation was evident after two hours (FIG. 19c).
(§2) PBS-washed cell pellets were lysed in 50 mM Tris pH 7.9, 8M Urea and 1% CHAPS and incubated with shaking at 4° C. for at least 30 min. 20 μg of supernatants were run and transferred for detection. Antibodies used: CUL1 (Santa Cruz Biotechnology, sc-1276), CUL2 (Sigma-Aldrich, SAB2501565-100), CUL3 (Cell Signaling Technology, 2759), CUL4A (Cell Signaling Technology, 2699S), CUL4B (Proteintech, 12916-1-AP), CUL5 (Santa Cruz Biotechnology, sc-373822), UBE2M (Santa Cruz Biotechnology, sc-390064), DDB1 (Cell Signaling Technology, 5428S), CCNK (Bethyl, A301-939A), CDK12 (Cell Signaling Technology, 11973S), CDK13 (Bethyl, A301-458A), RBM39 (1:500, Santa Cruz Biotechnology sc-376531), V5 (Cell Signaling Technology, 13202), Ubiquityl-Histone H2A (K119) (Cell Signaling, 8240-20). ACTIN (Sigma-Aldrich, A5441), VINCUL1N (Santa Cruz Biotechnology, sc-25336). Secondary antibodies anti-mouse/rabbit/goat (Jackson ImmunoResearch 115-035-003, 111-035-003 and 705-035-003).
(§3) Comparison of overall proteome-wide changes in KBM7 cells treated with IC020772.1 (2.5 μM), IC021313.2 (7 μM) or T6938051 (3.5 μM) for 5 h and 12h, using quantitative proteomics based on isobaric tagging.
In general terms: A western blot detects proteins with antibodies after separation by electrophoresis.

Series [2] deals with T2, CDK12/13 (Homo sapiens, UniProt Q14004).
T2 construct: endogenous in cells; host or cells: KBM7 cells
T2 sequence (O75909 whole entry): as the sequence (O75909 whole entry partner) above
T2 sequence (Q16531 whole entry, further chain): as the sequence (Q16531 whole entry partner) above
T2 sequence (Q14004 other isoform, or with tags, fused parts or gaps): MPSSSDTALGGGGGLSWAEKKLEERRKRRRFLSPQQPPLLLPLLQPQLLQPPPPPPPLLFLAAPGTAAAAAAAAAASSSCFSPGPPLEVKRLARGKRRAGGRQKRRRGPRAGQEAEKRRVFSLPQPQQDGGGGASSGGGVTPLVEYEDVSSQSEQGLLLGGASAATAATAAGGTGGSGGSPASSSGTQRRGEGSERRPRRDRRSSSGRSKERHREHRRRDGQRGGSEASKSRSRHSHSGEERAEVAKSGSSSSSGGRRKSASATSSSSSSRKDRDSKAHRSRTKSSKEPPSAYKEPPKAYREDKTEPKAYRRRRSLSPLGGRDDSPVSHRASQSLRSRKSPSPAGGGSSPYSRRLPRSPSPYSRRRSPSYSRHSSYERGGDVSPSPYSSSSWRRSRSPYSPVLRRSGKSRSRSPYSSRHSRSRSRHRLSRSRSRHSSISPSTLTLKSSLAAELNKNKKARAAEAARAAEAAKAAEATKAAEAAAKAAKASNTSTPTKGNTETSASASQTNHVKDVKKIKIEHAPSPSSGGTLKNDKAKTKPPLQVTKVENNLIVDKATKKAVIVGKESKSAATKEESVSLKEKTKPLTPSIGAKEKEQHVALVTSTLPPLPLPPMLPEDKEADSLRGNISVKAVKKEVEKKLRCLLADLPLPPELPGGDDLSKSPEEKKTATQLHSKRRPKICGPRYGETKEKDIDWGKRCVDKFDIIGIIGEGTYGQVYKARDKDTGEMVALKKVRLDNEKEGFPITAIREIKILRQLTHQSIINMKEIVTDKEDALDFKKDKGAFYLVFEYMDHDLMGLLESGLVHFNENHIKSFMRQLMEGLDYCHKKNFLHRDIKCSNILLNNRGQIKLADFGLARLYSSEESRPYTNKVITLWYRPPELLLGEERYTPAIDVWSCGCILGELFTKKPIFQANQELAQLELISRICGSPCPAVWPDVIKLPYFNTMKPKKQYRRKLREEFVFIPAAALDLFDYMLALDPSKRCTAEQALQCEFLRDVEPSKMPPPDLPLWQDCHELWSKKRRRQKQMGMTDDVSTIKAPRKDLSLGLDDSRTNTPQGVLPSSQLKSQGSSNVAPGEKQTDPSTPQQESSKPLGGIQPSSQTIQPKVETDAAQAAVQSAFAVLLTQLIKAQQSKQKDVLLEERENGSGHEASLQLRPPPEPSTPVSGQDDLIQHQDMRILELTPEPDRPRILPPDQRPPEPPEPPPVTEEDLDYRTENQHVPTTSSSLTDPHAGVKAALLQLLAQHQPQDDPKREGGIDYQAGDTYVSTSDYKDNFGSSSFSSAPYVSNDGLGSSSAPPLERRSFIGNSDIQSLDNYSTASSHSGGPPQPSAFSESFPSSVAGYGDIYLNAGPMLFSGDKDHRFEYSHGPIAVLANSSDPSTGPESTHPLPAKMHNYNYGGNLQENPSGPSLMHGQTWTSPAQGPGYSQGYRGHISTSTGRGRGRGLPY
The series is described as above. The note with it: expression proteomics, drug vs DMSO; Table 4, log2FC < −0.3. Type of series: cell-based. The method, then:
as §1, §2, §3

On to `Cc1ccc(C(=O)N2CSCC2C(=O)N=c2[nH]cc(C)s2)o1` (stereo not drawn) [Compound T6938051], for which, in the series on KBM7 CUL4Amut cells, the CC50 is 2.26 µM.

For the compound `O=C(CSc1nnc2c(n1)[nH]c1ccccc12)Nc1ccc(Cl)cn1` [IC020772.1], the CC50 in the series on KBM7 CUL4Amut cells was 1.22 µM. Also, the “log2FC (IC020772.1/DMSO)” value on CDK12/13 [1] (CDK12 (Q9NYV4-1)) was −1.171.

As to `O=C(CSc1nc2ccccc2[nH]1)Nc1ccc(Cl)cn1` [IC021313.2], in the series with KBM7 CUL4Amut cells, the CC50 turned out to be 1.56 µM. Besides, the “logFC (IC021313.2/DMSO), CDK13 (Q14004-2)” value at CDK12/13 [2] is recorded as −0.6574. Also, the “logFC (IC021313.2/DMSO), CDK12 (Q9NYV4-1)” value at CDK12/13 [1] (expression proteomics, drug vs DMSO, Table 4, log2FC < −0.3) is −0.897.
